# Results taken from EP4722201A1, “3-PHENYLISOXAZOLINE-5-CARBOXAMIDE COMPOUND, AND PREPARATION METHOD THEREFOR, HERBICIDAL COMPOSITION THEREOF AND USE THEREOF” (Jiangsu Flag Chemical Industry Co., Ltd, priority 2023, dated 2024).
# What was measured:
# Assay in all cases: Indoor herbicide activity determination, Seed Treatment; pre-emergence (soil spray)
# Type in all cases: in vivo
# Aegilops tauschii = settings: 120 g a.i./ha, read-out: Herbicidal activities (inhibition rate) Aegilops tauschii
# Procedure, shortened: (§1)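 Weed seeds sown in 7 cm pots of sandy nutrient soil (pH 6.1, 1% organic matter), kept 24 h in a constant-temperature lit room, then soil sprayed by traveling spray tower (flow 390 mL/min). Fresh-weight inhibition % versus untreated controls scored 21 days later.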
# Digitaria sanguinalis = settings: read-out: Herbicidal activities (inhibition rate) Digitaria sanguinalis; for inhibition at 120 g/ha: 120 g a.i./ha; for inhibition at 60 g/ha: 60 g a.i./ha
# Procedure, shortened: as §1
# Cyperus iria = settings: read-out: Herbicidal activities (inhibition rate) Cyperus iria; for inhibition at 120 g/ha: 120 g a.i./ha; for inhibition at 60 g/ha: 60 g a.i./ha
# Procedure, shortened: as §1
# Lolium multiflorum = test system: Lolium multiflorum
# Procedure, shortened: as §1
# Leptochloa chinensis = test system: Leptochloa chinensis
# Procedure, shortened: as §1
# Alopecurus myosuroides = test system: Alopecurus myosuroides
# Procedure, shortened: as §1
# Alopecurus japonicus = test system: Alopecurus japonicus
# Procedure, shortened: as §1
# Eleusine indica = test system: Eleusine indica
# Procedure, shortened: as §1
# Eclipta prostrata = settings: 60 g a.i./ha, read-out: Herbicidal activities (inhibition rate) Eclipta prostrata
# Procedure, shortened: as §1
SMILES,inhibition at 120 g/ha (Aegilops tauschii) [%],inhibition at 120 g/ha (Digitaria sanguinalis) [%],inhibition at 120 g/ha (Cyperus iria) [%],"Herbicidal activities, Lolium multiflorum (inhibition rate class) (Lolium multiflorum; Dosage 240 g a.i./ha)","Herbicidal activities, Leptochloa chinensis (inhibition rate class) (Leptochloa chinensis; Dosage 240 g a.i./ha)","Herbicidal activities, Alopecurus myosuroides (inhibition rate class) (Alopecurus myosuroides; Dosage 240 g a.i./ha)","Herbicidal activities, Alopecurus japonicus (inhibition rate class) (Alopecurus japonicus; Dosage 240 g a.i./ha)","Herbicidal activity (inhibition rate class), Eleusine indica (Eleusine indica; Dosage 120 g a.i./ha)",inhibition at 60 g/ha (Digitaria sanguinalis) [%],inhibition at 60 g/ha (Cyperus iria) [%],inhibition at 60 g/ha (Eclipta prostrata) [%],"Herbicidal activity (inhibition rate class), Lolium multiflorum (Lolium multiflorum; Dosage 120 g a.i./ha)","Herbicidal activity (inhibition rate class), Leptochloa chinensis (Leptochloa chinensis; Dosage 120 g a.i./ha)","Herbicidal activity (inhibition rate class), Alopecurus myosuroides (Alopecurus myosuroides; Dosage 120 g a.i./ha)","Herbicidal activity (inhibition rate class), Alopecurus japonicus (Alopecurus japonicus; Dosage 120 g a.i./ha)","Herbicidal activity (inhibition rate class), Eleusine indica (Eleusine indica; Dosage 240 g a.i./ha)","Herbicidal activity (inhibition rate class), Lolium multiflorum (Lolium multiflorum; Dosage 240 g a.i./ha)","Herbicidal activity (inhibition rate class), Leptochloa chinensis (Leptochloa chinensis; Dosage 240 g a.i./ha)","Herbicidal activity (inhibition rate class), Alopecurus myosuroides (Alopecurus myosuroides; Dosage 240 g a.i./ha)","Herbicidal activity (inhibition rate class), Alopecurus japonicus (Alopecurus japonicus; Dosage 240 g a.i./ha)"
C[S+]([O-])CCOC(=O)C1CC(NC(=O)C2(C)CC(c3cc(F)cc(OC(F)(F)F)c3)=NO2)CO1 (centres unmarked) [I-383],80 to 100,80 to 100,60 to 80,A (A indicates that the inhibition rate was greater than or equal to 80% to 100%),A (A indicates that the inhibition rate was greater than or equal to 80% to 100%),A (A indicates that the inhibition rate was greater than or equal to 80% to 100%),A (A indicates that the inhibition rate was greater than or equal to 80% to 100%),–,–,–,–,–,–,–,–,–,–,–,–,–
CC1(C(=O)NC2COC(C(=O)OCCS(C)(=O)=O)C2)CC(c2cc(F)cc(OC(F)(F)F)c2)=NO1 (centres unmarked) [I-384],80 to 100,80 to 100,60 to 80,A (A indicates that the inhibition rate was greater than or equal to 80% to 100%),A (A indicates that the inhibition rate was greater than or equal to 80% to 100%),A (A indicates that the inhibition rate was greater than or equal to 80% to 100%),A (A indicates that the inhibition rate was greater than or equal to 80% to 100%),–,–,–,–,–,–,–,–,–,–,–,–,–
COC(=O)C1CC(NC(=O)C2(C)CC(c3cc(F)cc(OC(F)F)c3)=NO2)CO1 (centres unmarked) [I-385],80 to 100,60 to 80,–,B (B indicates that the inhibition rate was greater than or equal to 60% to less than 80%),A (A indicates that the inhibition rate was greater than or equal to 80% to 100%),A (A indicates that the inhibition rate was greater than or equal to 80% to 100%),A (A indicates that the inhibition rate was greater than or equal to 80% to 100%),–,–,–,–,–,–,–,–,–,–,–,–,–
C=C[C@]1(C(=O)N[C@H]2C=C[C@@H](C(=O)O[C@H](C)COC)C2)CC(c2cc(F)cc(OC(F)(F)F)c2)=NO1 [I-459],–,–,–,–,–,–,–,A (A indicates that the inhibition rate was greater than or equal to 80% to 100%),60 to 80,60 to 80,60 to 80,A (A indicates that the inhibition rate was greater than or equal to 80% to 100%),A (A indicates that the inhibition rate was greater than or equal to 80% to 100%),A (A indicates that the inhibition rate was greater than or equal to 80% to 100%),A (A indicates that the inhibition rate was greater than or equal to 80% to 100%),–,–,–,–,–
COC(=O)[C@@H]1C=C[C@H](NC(=O)C2(C)CC(c3cc(F)cc(OC(F)(F)F)c3)=NO2)C1 (some centres unmarked) [I-489],80 to 100,60 to 80,80 to 100,–,–,–,–,–,–,–,–,–,–,–,–,A (A indicates that the inhibition rate was greater than or equal to 80% to 100%),A (A indicates that the inhibition rate was greater than or equal to 80% to 100%),A (A indicates that the inhibition rate was greater than or equal to 80% to 100%),A (A indicates that the inhibition rate was greater than or equal to 80% to 100%),A (A indicates that the inhibition rate was greater than or equal to 80% to 100%)
O=C(OCC1CCCC1)[C@@H]1C=C[C@H](NC(=O)[C@@]2(C(F)(F)F)CC(c3cc(F)cc(C(F)(F)F)c3)=NO2)C1 [I-519],–,–,–,–,–,–,–,A (A indicates that the inhibition rate was greater than or equal to 80% to 100%),80 to 100,80 to 100,80 to 100,A (A indicates that the inhibition rate was greater than or equal to 80% to 100%),A (A indicates that the inhibition rate was greater than or equal to 80% to 100%),A (A indicates that the inhibition rate was greater than or equal to 80% to 100%),A (A indicates that the inhibition rate was greater than or equal to 80% to 100%),–,–,–,–,–
